Results: US8445676B2, “Pyrrolotriazine kinase inhibitors” (Bristol-Myers Squibb Company, priority 2008, dated 2013)
Like-named read-outs stand apart in the source and are kept apart here.

Experiments:
JAK2 = JAK2 (Homo sapiens, UniProt O60674); test: JAK2 Tyrosine Kinase Assay; assay type: biochemical
Outline: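 Reaction of JAK2 with fluorescent substrate run 60 min at room temperature and stopped with EDTA. Substrate and phosphorylated product separated electrophoretically on a Caliper LabChip. Compounds tested at eleven concentrations in duplicate, with IC50 from non-linear regression.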

JAK3 = biological target: T1, JAK3 (Homo sapiens, UniProt P52333); test: JAK3 Tyrosine Kinase Assay; assay type: biochemical; conditions: ATP 8 μM; JAK3 2.5 nM; 60 min room temperature
T1 sequence (P52333 1-1124): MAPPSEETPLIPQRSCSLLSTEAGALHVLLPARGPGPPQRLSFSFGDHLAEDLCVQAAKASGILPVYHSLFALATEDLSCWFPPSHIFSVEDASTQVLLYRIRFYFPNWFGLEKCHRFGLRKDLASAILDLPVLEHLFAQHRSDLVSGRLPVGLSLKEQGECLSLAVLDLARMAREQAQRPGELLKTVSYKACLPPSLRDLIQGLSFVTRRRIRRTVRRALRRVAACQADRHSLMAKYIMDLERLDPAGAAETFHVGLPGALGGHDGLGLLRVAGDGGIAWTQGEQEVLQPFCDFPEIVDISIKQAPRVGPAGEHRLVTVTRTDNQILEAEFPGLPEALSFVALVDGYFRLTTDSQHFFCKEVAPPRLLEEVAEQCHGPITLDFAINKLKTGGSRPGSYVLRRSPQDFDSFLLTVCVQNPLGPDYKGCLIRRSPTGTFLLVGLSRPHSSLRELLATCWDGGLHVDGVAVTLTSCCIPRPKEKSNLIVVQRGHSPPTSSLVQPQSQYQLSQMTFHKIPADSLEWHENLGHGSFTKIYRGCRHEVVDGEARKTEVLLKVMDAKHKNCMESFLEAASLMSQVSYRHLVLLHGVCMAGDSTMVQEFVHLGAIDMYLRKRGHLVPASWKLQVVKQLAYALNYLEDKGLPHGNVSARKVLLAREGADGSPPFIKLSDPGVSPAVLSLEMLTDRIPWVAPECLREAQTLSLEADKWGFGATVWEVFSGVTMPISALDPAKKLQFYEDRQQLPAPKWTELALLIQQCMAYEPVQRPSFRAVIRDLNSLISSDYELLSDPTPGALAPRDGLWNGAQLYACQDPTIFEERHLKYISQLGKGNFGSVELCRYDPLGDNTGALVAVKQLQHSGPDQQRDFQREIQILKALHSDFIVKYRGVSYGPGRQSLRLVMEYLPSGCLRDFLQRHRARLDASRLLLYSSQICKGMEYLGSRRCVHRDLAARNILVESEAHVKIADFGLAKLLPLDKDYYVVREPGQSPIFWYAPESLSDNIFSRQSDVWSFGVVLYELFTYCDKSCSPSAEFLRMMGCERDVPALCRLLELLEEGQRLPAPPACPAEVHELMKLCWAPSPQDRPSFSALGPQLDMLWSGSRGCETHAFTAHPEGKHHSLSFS
Protocol: JAK3 Tyrosine Kinase Assay
The assays were performed in V-bottom 384-well plates. […] The reaction was initiated by the combination of JAK3 with substrates and test compounds. The reaction was incubated at room temperature for 60 min. and terminated by adding 45 μl of 35 mM EDTA to each sample. The reaction mixture was analyzed on the Caliper LabChip 3000 by electrophoretic separation of the fluorescent substrate and phosphorylated product. […] The final concentration of reagents in the assays is ATP, 8 μM; JAK3 fluorescent peptide, 1.5 μM; JAK3, 2.5 nM; and DMSO, 1.6%. […] Compounds were dissolved at 10 mM in dimethylsulfoxide (DMSO) and evaluated at eleven concentrations, each in duplicate. IC50 values were derived by non-linear regression analysis.

[1] = ATP 30 μM, JAK2 1 nM, 60 min room temperature, read-out: Jak2(IC50)

Sequence of JAK2 (O60674 whole entry): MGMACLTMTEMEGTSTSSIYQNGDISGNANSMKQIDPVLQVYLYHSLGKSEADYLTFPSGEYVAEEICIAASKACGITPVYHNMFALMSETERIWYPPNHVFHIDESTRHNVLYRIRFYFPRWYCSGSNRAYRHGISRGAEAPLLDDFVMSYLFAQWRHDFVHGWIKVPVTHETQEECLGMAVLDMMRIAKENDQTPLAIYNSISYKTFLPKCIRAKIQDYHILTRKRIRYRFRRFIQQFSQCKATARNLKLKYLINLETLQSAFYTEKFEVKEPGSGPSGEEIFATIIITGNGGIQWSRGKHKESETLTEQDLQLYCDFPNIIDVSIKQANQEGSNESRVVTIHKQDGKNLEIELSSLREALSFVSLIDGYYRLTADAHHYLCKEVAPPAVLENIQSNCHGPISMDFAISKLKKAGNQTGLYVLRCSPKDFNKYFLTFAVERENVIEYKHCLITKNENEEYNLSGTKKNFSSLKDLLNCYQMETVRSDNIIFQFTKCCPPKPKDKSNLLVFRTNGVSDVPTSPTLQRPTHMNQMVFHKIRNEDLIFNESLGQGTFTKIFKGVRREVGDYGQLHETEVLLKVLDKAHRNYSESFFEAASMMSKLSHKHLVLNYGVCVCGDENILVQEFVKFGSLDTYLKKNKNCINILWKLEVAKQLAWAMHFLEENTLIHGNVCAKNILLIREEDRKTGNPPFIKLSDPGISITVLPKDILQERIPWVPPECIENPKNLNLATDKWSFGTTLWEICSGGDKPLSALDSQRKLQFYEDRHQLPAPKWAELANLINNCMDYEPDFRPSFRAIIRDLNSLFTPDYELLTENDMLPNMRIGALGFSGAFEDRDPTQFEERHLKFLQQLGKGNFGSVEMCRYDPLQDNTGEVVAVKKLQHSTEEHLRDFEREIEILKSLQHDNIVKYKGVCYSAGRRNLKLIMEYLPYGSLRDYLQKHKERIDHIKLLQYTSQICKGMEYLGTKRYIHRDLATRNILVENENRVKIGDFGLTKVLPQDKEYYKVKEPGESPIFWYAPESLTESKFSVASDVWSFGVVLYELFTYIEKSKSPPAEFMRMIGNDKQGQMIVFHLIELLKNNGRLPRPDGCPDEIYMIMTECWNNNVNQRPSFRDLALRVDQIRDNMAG

| Structure (SMILES) | IC50 (JAK2; [1]) | IC50 (JAK3) | IC50 (JAK2; list of named compounds, read-out: IC50 in the JAK2 assay) |
| --- | --- | --- | --- |
| Cc1cc(Nc2nc(N3CCN(C(=O)c4c(F)cccc4F)CC3)nn3cccc23)n[nH]1 [Example 20, 2-(4-(2,6-difluorobenzoyl)-1-piperazinyl)-N-(5-methyl-1H-pyrazol-3-yl)pyrrolo[2,1-f] [1,2,4]triazin-4-amine] | 8.14 nM | 50 nM |  |
| Cc1cc(Nc2nc(N3CCN(C(=O)c4ccc(F)cc4)CC3)nn3cccc23)n[nH]1 [Example 24, 2-(4-(4-fluorobenzoyl)-1-piperazinyl)-N-(5-methyl-1H-pyrazol-3-yl)pyrrolo[2,1-f][1,2,4]triazin-4-amine] | 1.14 nM | 5.98 nM |  |
| Cc1cnc(C(=O)N2CCN(c3nc(Nc4cc(C)[nH]n4)c4cccn4n3)CC2)cn1 [Example 32, 2-(4-((5-methyl-2-pyrazinyl)carbonyl)-1-piperazinyl)-N-(5-methyl-1H-pyrazol-3-yl)pyrrolo[2,1-f] [1,2,4]triazin-4-amine] | 7.16 nM | 120 nM |  |
| Cc1cc(Nc2nc(N3CCN(C(=O)Cc4ccc(F)cc4F)CC3)nn3cccc23)n[nH]1 [Example 37, 2-(4-((2,4-difluorophenyl)acetyl)-1-piperazinyl)-N-(5-methyl-1H-pyrazol-3-yl)pyrrolo[2,1-f][1,2,4]triazin-4-amine] | 7.73 nM | 160 nM |  |
| Cc1cc(Nc2nc(N3CCN(C(=O)Cc4c(Cl)cccc4Cl)CC3)nn3cccc23)n[nH]1 [Example 38, 2-(4-((2,6-dichlorophenyl)acetyl)-1-piperazinyl)-N-(5-methyl-1H-pyrazol-3-yl)pyrrolo[2,1-f][1,2,4]triazin-4-amine] | 1.12 nM | 30 nM |  |
| Cc1cc(Nc2nc(N3CCN(C(=O)Cc4ccc(C(F)(F)F)cc4)CC3)nn3cccc23)n[nH]1 [Example 43, N-(5-methyl-1H-pyrazol-3-yl)-2-(4-((4-(trifluoromethyl)phenyl)acetyl)-1-piperazinyl)pyrrolo[2,1-f][1,2,4]triazin-4-amine] | 2660 nM | 50000 nM |  |
| Cc1cc(Nc2nc(N3CCN(C(=O)Cc4cccc(C(F)(F)F)c4)CC3)nn3cccc23)n[nH]1 [Example 48, N-(5-methyl-1H-pyrazol-3-yl)-2-(4-((3-(trifluoromethyl)phenyl)acetyl)-1-piperazinyl)pyrrolo[2,1-f][1,2,4]triazin-4-amine] | 0.903 nM | 20 nM |  |
| Cc1cc(Nc2nc(N3CCN(C(=O)c4cccc(C#N)c4)CC3)nn3cccc23)n[nH]1 [Example 66, 3-((4-(4-((5-methyl-1H-pyrazol-3-yl)amino)pyrrolo[2,1-f][1,2,4]triazin-2-yl)-1-piperazinyl)carbonyl)benzonitrile] | 0.898 nM | 10 nM |  |
| Cc1cc(Nc2nc(N3CCN(C(=O)Cc4ccc(OC(F)(F)F)cc4)CC3)nn3cccc23)n[nH]1 [Example 91, N-(5-methyl-1H-pyrazol-3-yl)-2-(4-((4-(trifluoromethoxy)phenyl)acetyl)-1-piperazinyl)pyrrolo[2,1-f][1,2,4]triazin-4-amine] | 0.697 nM | 20 nM |  |
| Cc1cc(Nc2nc(N3CCN(C(=O)c4ncccn4)CC3)nn3cccc23)n[nH]1 [Example 95, N-(5-methyl-1H-pyrazol-3-yl)-2-(4-(2-pyrimidinylcarbonyl)-1-piperazinyl)pyrrolo[2,1-f] [1,2,4]triazin-4-amine] | 6.65 nM | 90 nM |  |
| Cc1cc(Nc2nc(N3CCN(C(=O)c4ccns4)CC3)nn3cccc23)n[nH]1 [Example 106, 2-(4-(5-isothiazolylcarbonyl)-1-piperazinyl)-N-(5-methyl-1H-pyrazol-3-yl)pyrrolo[2,1-f] [1,2,4]triazin-4-amine] | 7.14 nM | 40 nM |  |
| Cc1cc(Nc2nc(N3CCN(C(=O)C4(c5ccc(F)cc5)CCCCC4)CC3)nn3cccc23)n[nH]1 [Example 126, 2-(4-((1-(4-fluorophenyl)cyclohexyl)carbonyl)-1-piperazinyl)-N-(5-methyl-1H-pyrazol-3-yl)pyrrolo[2,1-f] [1,2,4]triazin-4-amine] | 150 nM | 1410 nM |  |
| Cc1cc(Nc2nc(N3CCN(C(=O)[C@@H](NC(=O)OC(C)(C)C)c4ccc(F)cc4)CC3)nn3cccc23)n[nH]1 [Example 132, tert-butyl((1S)-1-(4-fluorophenyl)-2-(4-(4-((5-methyl-1H-pyrazol-3-yl)amino)pyrrolo[2,1-f][1,2,4]triazin-2-yl)-1-piperazinyl)-2-oxoethyl)carbamate] | 0.971 nM | 30 nM |  |
| COc1cc(F)c(CC(=O)N2CCN(c3nc(Nc4cc(C)[nH]n4)c4cccn4n3)CC2)c(F)c1 [Example 139, 2-(4-((2,6-difluoro-4-methoxyphenyl)acetyl)-1-piperazinyl)-N-(5-methyl-1H-pyrazol-3-yl)pyrrolo[2,1-f][1,2,4]triazin-4-amine] |  | 70 nM |  |
| Cc1cc(Nc2nc(N3CCN(C(=O)[C@@H](NC(=O)OC(C)(C)C)c4ccc(F)cc4)CC3)nn3cccc23)n[nH]1 [tert-butyl((1S)-1-(4-fluorophenyl)-2-(4-(4-((5-methyl-1H-pyrazol-3-yl)amino)pyrrolo[2,1-f][1,2,4]triazin-2-yl)-1-piperazinyl)-2-oxoethyl)carbamate] |  |  | ≤ 5 nM |

The remaining lines, values ahead:

| IC50 (JAK2; [1]) | IC50 (JAK3) | IC50 (JAK2; list of named compounds, read-out: IC50 in the JAK2 assay) | Structure (SMILES) |
| --- | --- | --- | --- |
| 320 nM | 2060 nM |  | Cc1cc(Nc2nc(N3CCN(C(=O)C(C)(C)c4ccccc4)CC3)nn3cccc23)n[nH]1 [Example 7, 2-(4-(2-methyl-2-phenylpropanoyl)-1-piperazinyl)-N-(5-methyl-1H-pyrazol-3-yl)pyrrolo[2,1-f] [1,2,4]triazin-4-amine] |
| 0.604 nM | 9.84 nM |  | Cc1cc(Nc2nc(N3CCN(C(=O)Cc4ccccc4C(F)(F)F)CC3)nn3cccc23)n[nH]1 [Example 10, N-(5-methyl-1H-pyrazol-3-yl)-2-(4-((2-(trifluoromethyl)phenyl)acetyl)-1-piperazinyl)pyrrolo[2,1-f][1,2,4]triazin-4-amine] |
| 0.891 nM | 10 nM |  | COc1ccc(CC(=O)N2CCN(c3nc(Nc4cc(C)[nH]n4)c4cccn4n3)CC2)cc1 [Example 45, 2-(4-((4-methoxyphenyl)acetyl)-1-piperazinyl)-N-(5-methyl-1H-pyrazol-3-yl)pyrrolo[2,1-f][1,2,4]triazin-4-amine] |
| 7.9 nM | 170 nM |  | COc1cccc(CC(=O)N2CCN(c3nc(Nc4cc(C)[nH]n4)c4cccn4n3)CC2)c1 [Example 49, 2-(4-((3-methoxyphenyl)acetyl)-1-piperazinyl)-N-(5-methyl-1H-pyrazol-3-yl)pyrrolo[2,1-f][1,2,4]triazin-4-amine] |
| 8.15 nM | 70 nM |  | CO[C@H](C(=O)N1CCN(c2nc(Nc3cc(C)[nH]n3)c3cccn3n2)CC1)c1ccccc1 [Example 90, 2-(4-((2S)-2-methoxy-2-phenylacetyl)-1-piperazinyl)-N-(5-methyl-1H-pyrazol-3-yl)pyrrolo[2,1-f] [1,2,4]triazin-4-amine] |
| 1 nM | 20 nM |  | CO[C@@H](C(=O)N1CCN(c2nc(Nc3cc(C)[nH]n3)c3cccn3n2)CC1)c1ccccc1 [Example 110, 2-(4-((2R)-2-methoxy-2-phenylacetyl)-1-piperazinyl)-N-(5-methyl-1H-pyrazol-3-yl)pyrrolo[2,1-f][1,2,4]triazin-4-amine] |
